According to ChEMBL document CHEMBL1201862, “PubChem BioAssay data set” (2004):
The source made the active and inactive calls.

Assays:
[1] = molecular target: T1, Nuclear receptor subfamily 0 group B member 1 (Homo sapiens, UniProt P51843); assay type: functional, cell-based;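 note: HEK293T cells transfected with SF-1 and DAX-1 plus StAR promoter luciferase reporter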
T1 sequence (P51843 whole entry): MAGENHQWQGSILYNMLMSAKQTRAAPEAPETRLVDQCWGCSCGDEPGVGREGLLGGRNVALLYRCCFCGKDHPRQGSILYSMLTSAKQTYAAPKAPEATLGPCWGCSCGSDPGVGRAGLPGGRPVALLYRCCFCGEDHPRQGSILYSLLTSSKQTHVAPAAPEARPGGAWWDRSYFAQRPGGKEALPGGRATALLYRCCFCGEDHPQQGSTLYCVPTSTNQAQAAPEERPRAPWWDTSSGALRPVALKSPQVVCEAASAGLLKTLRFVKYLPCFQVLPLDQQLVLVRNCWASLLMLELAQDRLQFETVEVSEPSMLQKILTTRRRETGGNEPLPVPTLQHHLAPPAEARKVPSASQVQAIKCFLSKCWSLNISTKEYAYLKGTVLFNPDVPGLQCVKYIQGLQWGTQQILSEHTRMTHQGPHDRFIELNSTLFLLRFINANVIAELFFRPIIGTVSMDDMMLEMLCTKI

cells [2] = assay type: functional, cell-based
[3] = molecular target: Fructose-bisphosphate aldolase (Mycobacterium tuberculosis, UniProt P9WQA3); test: Fluorescence-based biochemical high throughput dose response assay for inhibitors of the fructose-bisphosphate aldolase (FBA) of M. tuberculosis.; assay type: functional
Sequence of Fructose-bisphosphate aldolase (P9WQA3 whole entry): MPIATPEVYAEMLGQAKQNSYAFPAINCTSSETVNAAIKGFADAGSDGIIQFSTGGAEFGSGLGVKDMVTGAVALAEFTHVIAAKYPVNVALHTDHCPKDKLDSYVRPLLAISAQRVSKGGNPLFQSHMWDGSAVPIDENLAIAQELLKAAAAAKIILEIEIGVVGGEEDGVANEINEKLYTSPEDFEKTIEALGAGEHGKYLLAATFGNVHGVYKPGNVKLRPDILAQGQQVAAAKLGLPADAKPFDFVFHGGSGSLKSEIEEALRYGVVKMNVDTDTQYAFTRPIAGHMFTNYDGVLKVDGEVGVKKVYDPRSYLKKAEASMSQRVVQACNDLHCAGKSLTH

Beta-lactamase [4] = molecular target: T2, Beta-lactamase (Pseudomonas aeruginosa, UniProt Q79MP6); test: […] counterscreen for selective VIM-2 inhibitors: dose response biochemical high throughput screening assay to identify inhibitors of IMP-1 metallo-beta-lactamase.
T2 sequence (Q79MP6 whole entry): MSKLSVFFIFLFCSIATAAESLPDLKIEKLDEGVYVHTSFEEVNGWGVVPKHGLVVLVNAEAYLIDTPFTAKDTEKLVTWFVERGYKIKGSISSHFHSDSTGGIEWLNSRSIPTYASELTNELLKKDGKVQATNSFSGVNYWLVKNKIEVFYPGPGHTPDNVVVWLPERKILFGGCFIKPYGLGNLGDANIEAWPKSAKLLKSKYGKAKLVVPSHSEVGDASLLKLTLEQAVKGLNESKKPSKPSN

Beta-lactamase [5] = molecular target: T2, Beta-lactamase; test: inhibition of IMP-1 beta-lactamase activity – biochemical, epi-absorbance, selectivity assay for VIM-2 inhibitor project, dose response (AID 1920)
Beta-lactamase [6] = molecular target: Beta-lactamase (Salmonella choleraesuis (strain SC-B67), UniProt Q5J463); test: Epi-absorbance-based counterscreen for selective VIM-2 inhibitors: dose response biochemical high throughput screening assay to identify inhibitors of TEM-1 serine-beta-lactamase.
Sequence of Beta-lactamase (Salmonella choleraesuis (strain SC-B67), UniProt Q5J463) (Q5J463 whole entry): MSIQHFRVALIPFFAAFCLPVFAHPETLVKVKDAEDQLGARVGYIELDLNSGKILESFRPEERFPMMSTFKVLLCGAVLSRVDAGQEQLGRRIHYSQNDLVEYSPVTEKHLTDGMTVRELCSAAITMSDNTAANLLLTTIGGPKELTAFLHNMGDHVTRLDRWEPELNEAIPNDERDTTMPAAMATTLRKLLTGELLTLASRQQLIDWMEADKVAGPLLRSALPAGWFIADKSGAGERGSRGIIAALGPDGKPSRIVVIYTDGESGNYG

Vero = test: viability loss in Vero cells – cell-based, plate reader, cherry-pick samples, cytotoxicity control, dose response (AID 687020); assay type: functional; details: Chlorocebus sabaeus
Protein Wnt-3a = Protein Wnt-3a (Mus musculus, UniProt P27467); test: antagonism of Wnt3a pathway luciferase reporter – Wnt-LIGHT cells, luminescence, selectivity assay for Gli-SUFU antagonist project, dose response (AID 651570); assay type: functional; details: read-out: IC50_Mean;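 note: Wnt-LIGHT reporter cells stimulated with conditioned medium from Wnt3a-producing cells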
Sequence of Protein Wnt-3a (P27467 whole entry): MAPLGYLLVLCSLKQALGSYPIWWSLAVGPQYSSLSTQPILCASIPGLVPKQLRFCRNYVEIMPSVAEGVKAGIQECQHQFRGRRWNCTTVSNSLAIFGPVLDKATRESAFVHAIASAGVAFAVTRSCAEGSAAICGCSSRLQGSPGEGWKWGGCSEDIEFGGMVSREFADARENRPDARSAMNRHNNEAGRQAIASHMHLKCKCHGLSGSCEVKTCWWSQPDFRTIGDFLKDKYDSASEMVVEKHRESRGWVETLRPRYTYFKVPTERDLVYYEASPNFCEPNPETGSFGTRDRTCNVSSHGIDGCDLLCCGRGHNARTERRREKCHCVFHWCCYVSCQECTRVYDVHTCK

[7] = bead-based luminescence quenchers, dual-tagged ARNT – biochemical, AlphaScreen, cherry-pick, artefact control for ARNT-TACC3 interaction inhibitor project, dose response (AID 651705); assay type: functional;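 note: AlphaScreen bead proximity signal that flags compounds interfering with the detection technology; potency reflects signal decrease which marks the compound as an assay artifact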
[8] = molecular target: T3, DNA repair protein RAD52 homolog (Homo sapiens, UniProt P43351); assay type: functional, biochemical
T3 sequence (P43351 whole entry): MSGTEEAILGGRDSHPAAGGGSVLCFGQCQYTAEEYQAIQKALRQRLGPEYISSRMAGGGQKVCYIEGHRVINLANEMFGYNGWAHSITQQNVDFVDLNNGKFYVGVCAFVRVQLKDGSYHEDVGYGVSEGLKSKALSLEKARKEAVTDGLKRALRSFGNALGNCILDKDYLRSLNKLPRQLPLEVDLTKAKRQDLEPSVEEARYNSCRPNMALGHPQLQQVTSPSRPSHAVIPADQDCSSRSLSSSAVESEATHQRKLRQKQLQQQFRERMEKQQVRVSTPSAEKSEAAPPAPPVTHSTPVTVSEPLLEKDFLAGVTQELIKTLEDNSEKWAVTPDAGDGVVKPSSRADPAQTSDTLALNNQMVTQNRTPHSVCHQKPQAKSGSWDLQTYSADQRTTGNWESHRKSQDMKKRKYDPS

[9] = molecular target: DNA repair and recombination protein RAD54-like (Homo sapiens, UniProt Q92698); test: RAD54 Holliday junction migration blockers – biochemical, fluorescence, cherry-picked samples, dose series, confirmation (AID 651657); assay type: functional
Sequence of DNA repair and recombination protein RAD54-like (Q92698 whole entry): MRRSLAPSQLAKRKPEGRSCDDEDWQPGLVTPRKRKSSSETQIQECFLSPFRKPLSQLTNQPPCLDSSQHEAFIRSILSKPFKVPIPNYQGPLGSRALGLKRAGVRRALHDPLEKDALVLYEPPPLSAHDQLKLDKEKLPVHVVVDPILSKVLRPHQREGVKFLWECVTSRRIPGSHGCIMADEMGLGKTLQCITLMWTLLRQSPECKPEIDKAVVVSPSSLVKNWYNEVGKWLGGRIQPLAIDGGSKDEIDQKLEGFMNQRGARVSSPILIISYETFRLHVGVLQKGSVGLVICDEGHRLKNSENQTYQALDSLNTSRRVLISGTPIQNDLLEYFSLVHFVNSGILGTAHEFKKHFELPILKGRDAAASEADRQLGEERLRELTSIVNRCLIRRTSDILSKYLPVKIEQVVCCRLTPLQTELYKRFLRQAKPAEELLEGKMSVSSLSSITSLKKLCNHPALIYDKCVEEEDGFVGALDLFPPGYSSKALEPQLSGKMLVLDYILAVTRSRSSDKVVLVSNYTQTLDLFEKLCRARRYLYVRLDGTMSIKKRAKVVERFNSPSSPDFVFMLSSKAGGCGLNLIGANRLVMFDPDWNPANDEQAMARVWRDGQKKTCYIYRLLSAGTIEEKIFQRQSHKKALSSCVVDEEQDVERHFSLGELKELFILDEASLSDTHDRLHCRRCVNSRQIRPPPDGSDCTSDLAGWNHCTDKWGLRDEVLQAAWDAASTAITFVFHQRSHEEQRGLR

[10] = viability loss in THP-1 monocytes – THP-1 cells, cytotoxicity control for Vif-APOBEC3G degradation inhibitor project, dose response (AID 1117359); assay type: functional; details: THP-1
[11] = MIN6 cell viability loss – mouse insulinoma, cytotoxicity control, dose response (AID 2122); assay type: functional;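 note: confirmatory high-throughput counterscreen run to flag cytotoxic compounds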
[12] = decrease of insulin promoter-GFP reporter – imaging, high-content screening, mouse beta cells (AID 1628); assay type: functional; details: MIN6
Melanocortin receptor 4 = Melanocortin receptor 4 (Homo sapiens, UniProt P32245); assay type: functional, cell-based;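 note: Cell-based assay with luminescence read-out, confirmatory dose-response testing for agonist activity of biased ligands at MC4R; human U2OS cells with tagged receptor and beta-arrestin; potency of agonists that increase receptor coupling to beta-arrestin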
Sequence of Melanocortin receptor 4 (P32245 whole entry, the tested form may be a part): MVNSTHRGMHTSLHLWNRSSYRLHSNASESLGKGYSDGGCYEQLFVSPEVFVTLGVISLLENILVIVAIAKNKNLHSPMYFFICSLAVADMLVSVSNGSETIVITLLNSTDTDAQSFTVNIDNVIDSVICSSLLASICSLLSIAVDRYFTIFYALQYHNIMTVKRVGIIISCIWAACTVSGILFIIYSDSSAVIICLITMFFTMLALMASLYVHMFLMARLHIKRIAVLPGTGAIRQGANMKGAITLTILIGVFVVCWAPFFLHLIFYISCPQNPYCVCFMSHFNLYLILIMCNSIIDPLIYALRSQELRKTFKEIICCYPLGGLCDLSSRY

[13] = molecular target: T4, Polyadenylate-binding protein 1 (Homo sapiens, UniProt P11940); test: MLLE domain peptide-binding blockers, IC50 – biochemical, fluorescence polarization, FITC-PAM2 peptide, dose response (AID 602259); assay type: functional; details: read-out: IC50_Mean
T4 sequence (P11940 whole entry, the tested form may be a part): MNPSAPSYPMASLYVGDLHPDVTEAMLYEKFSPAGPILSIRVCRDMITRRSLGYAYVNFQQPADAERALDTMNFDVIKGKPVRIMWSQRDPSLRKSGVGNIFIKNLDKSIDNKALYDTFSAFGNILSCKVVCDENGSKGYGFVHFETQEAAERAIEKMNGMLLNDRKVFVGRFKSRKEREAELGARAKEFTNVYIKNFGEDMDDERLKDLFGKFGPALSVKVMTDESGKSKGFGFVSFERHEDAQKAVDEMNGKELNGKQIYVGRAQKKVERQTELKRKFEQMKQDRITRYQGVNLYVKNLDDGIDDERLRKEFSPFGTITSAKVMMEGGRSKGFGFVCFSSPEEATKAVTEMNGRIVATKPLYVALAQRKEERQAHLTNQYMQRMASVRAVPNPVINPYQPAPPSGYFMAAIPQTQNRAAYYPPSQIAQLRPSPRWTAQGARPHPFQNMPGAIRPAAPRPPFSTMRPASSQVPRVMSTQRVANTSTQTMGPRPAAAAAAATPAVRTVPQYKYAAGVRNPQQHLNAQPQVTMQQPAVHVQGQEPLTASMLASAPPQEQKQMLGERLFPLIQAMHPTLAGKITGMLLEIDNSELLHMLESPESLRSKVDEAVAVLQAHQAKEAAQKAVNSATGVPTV

[14] = molecular target: T4, Polyadenylate-binding protein 1; test: MLLE binding blockers, Cy5 peptide tracer – biochemical, fluorescence polarization, Cy5-PAM2 peptide, secondary, miRNA deadenylation inhibitor project, dose response (AID 602260); assay type: functional; details: read-out: IC50_Mean
HEK293 [15] = test: cells; details: Homo sapiens
[16] = molecular target: T5, Methionyl-tRNA synthetase, putative (Trypanosoma brucei brucei, UniProt Q38C91); assay type: functional, Trypanosoma brucei brucei strain 927/4 GUTat10.1
T5 sequence (Q38C91 whole entry): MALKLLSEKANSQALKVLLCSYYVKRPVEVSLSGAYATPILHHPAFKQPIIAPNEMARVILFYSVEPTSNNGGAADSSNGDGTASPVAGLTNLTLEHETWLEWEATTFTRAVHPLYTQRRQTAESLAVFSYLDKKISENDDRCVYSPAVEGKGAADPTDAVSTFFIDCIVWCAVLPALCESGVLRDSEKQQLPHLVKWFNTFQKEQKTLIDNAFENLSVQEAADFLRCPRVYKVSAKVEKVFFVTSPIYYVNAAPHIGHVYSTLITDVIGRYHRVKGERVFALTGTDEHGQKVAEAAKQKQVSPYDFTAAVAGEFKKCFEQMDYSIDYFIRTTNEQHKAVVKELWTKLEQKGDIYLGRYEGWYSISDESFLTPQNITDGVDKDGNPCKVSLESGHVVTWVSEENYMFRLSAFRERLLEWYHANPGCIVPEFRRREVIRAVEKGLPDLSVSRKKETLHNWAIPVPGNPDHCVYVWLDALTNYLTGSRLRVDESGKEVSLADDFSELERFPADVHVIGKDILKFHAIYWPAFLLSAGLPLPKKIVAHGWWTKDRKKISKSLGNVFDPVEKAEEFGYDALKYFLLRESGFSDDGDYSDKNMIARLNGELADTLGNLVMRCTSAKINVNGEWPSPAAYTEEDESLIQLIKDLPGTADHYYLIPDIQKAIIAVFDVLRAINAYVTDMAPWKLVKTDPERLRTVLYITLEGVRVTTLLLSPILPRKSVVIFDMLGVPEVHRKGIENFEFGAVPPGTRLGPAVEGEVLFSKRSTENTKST

[17] = molecular target: T5, Methionyl-tRNA synthetase, putative; assay type: functional, Trypanosoma brucei brucei strain 927/4 GUTat10.1; remark: listed apart in the source
HEK293 [18] = test: cells; details: Homo sapiens; remark: listed apart in the source
[19] = Counterscreen for inhibitors of Trypanosoma brucei methionyl tRNA synthetase (MetRS): Luminescence-based cell-based high throughput dose response assay to identify compounds that are cytotoxic to Jurkat human T lymphocyte cells.; assay type: functional
[20] = molecular target: T6, Apoptotic protease-activating factor 1 (Homo sapiens, UniProt O14727); test: SAR analysis of small molecule Activators of Apaf-1 in a Fluorescent assay.; assay type: functional; details: read-out: EC50_Mean;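 note: caspase-3 cleavage of fluorogenic Rh110 DEVD substrate downstream of apoptosome activation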
T6 sequence (O14727 whole entry): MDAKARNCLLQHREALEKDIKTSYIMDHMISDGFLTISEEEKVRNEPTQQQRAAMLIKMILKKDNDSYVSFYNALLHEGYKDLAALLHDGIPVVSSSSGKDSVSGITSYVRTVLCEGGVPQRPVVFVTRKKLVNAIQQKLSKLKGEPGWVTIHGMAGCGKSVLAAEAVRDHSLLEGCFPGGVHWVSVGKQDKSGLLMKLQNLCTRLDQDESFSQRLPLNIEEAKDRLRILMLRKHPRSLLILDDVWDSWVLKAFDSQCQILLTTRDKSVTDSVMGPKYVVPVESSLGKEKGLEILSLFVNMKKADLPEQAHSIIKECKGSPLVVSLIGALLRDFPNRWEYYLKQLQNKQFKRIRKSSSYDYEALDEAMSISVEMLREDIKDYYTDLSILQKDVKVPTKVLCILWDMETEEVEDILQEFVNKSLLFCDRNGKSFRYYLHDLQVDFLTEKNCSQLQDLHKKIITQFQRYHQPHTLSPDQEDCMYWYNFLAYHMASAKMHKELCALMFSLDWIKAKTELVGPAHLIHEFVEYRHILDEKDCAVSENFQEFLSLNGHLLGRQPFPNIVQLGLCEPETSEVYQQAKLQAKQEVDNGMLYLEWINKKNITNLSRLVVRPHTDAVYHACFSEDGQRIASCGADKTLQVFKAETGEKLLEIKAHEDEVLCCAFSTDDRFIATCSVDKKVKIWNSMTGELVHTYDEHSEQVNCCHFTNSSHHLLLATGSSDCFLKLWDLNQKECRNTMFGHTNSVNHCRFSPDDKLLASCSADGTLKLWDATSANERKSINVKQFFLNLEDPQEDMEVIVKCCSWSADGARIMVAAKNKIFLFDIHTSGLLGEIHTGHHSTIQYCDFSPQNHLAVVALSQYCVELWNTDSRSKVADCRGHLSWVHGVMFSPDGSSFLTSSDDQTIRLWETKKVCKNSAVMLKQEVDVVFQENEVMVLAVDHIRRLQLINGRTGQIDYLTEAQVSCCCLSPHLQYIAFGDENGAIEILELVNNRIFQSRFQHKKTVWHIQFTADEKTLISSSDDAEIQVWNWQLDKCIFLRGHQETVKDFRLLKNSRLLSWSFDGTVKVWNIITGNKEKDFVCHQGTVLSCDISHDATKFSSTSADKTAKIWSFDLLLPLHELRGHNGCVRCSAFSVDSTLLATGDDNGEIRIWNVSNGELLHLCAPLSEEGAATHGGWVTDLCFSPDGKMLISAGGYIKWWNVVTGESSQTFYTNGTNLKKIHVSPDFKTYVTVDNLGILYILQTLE

[21] = activation of miR-122 Renilla sensor silencing – cell-based, Huh7 psiCHECK-miR122, Renilla luciferase, cherry-picked, dose response (AID 651956); assay type: functional;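 note: huh7 hepatoma cells stably carrying a psiCHECK-2 miR-122 sensor plasmid; renilla luciferase signal reporting endogenous miR-122 activity after 48 h compound exposure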
INS1 = test: INS-1E survival protection against cytokine death – cell-based, luminescence, retest, dose response (AID 449756); assay type: functional; details: Rattus norvegicus;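 note: cell death triggered by IL-1 beta plus TNF-alpha plus IFN-gamma mixture; protective hits raise ATP signal compared with cytokine alone wells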
Nonstructural protein 1 = Nonstructural protein 1 (Influenza A virus, UniProt Q194T2); assay type: functional, Influenza A virus (A/California/07/2009(H1N1))
Sequence of Nonstructural protein 1 (Q194T2 whole entry): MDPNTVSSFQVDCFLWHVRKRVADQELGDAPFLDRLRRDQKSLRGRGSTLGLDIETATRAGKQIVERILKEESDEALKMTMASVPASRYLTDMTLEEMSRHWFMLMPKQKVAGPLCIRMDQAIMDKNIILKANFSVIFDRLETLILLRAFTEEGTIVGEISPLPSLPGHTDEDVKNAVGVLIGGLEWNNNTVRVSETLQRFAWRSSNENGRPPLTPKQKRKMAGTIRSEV

cells [22] = assay type: functional, cell-based; remark: listed apart in the source
cells [23] = assay type: functional, cell-based; remark: listed apart in the source

O=C(c1ccc2nc(Cc3ccccc3F)oc2c1)N1CC[C@H](O)C1
IC50 [1]: > 67.6 µM (inactive) | IC50 (cells [2]): > 67.6 µM (inactive)

COCCn1c(SCC(=O)N2CCCCC2)nc2c(c1=O)SCC2
IC50 [3]: > 9.99 µM (inactive)

O=c1c2ccccc2cnn1Cc1nnc(S)n1C1CC2CCC1C2 (stereo not given)
IC50 (Beta-lactamase [4]): > 59.6 µM (inactive) | IC50 (Beta-lactamase [5]): > 59.6 µM (inactive) | IC50 (Beta-lactamase [6]): > 59.6 µM (inactive)

COc1ccccc1CNC(=O)C(=O)Nc1ccc(C(=O)N2CCC(C)CC2)cc1
AC50 (Vero): 25.8 µM (active)

CC[N+](CC)(CC#Cc1ccccc1)CC#Cc1ccccc1
IC50 (Protein Wnt-3a): 35.2 µM (inactive)

CC1CC1C(=O)Nc1nc(-c2ccccn2)cs1 (stereo not given)
AC50 [7]: 82.6 µM (active)

CCOCCCN=C(S)Nc1ccc2nc(N3CCN(CC)CC3)cc(C)c2c1
AC50 [8]: 33 µM (active) | AC50 [9]: 100 µM (inactive) | CC50 [10]: > 40 µM (active)

C=CCNc1nc2c(c(=O)n(C)c(=O)n2C)n1Cc1ccc(F)cc1
IC50 [11]: 892 nM (active) | IC50 (Protein Wnt-3a): 5.06 µM (active) | IC50 [12]: 1.13 µM (active)

Cc1oc(C)c(C(=O)Nc2ccc(CC(=O)O)cc2)c1C(=O)Nc1ccc(CC(=O)O)cc1
IC50 [3]: > 9.99 µM (inactive)

Cc1ccc(OCC(=O)NC(=S)Nc2cccc(NC(=O)c3ccccc3)c2)cc1
EC50 (Melanocortin receptor 4): > 89.2 µM (inactive) | IC50 [13]: > 66 µM (inactive) | IC50 [14]: > 66 µM (inactive)

COc1cc2c(c(OC)c1OC)-c1ccc(OC)c(=O)cc1C(NC(=O)c1ccccc1)CC2 (stereo not given)
IC50 [1]: > 67.5 µM (inactive) | IC50 (cells [2]): > 67.5 µM (inactive)

NC(Cc1ccc(Cl)cc1)c1csc(NC(=O)Nc2ccccc2)n1 (stereo not given)
EC50 (Melanocortin receptor 4): > 89.2 µM (inactive) | EC50 (HEK293 [15]): > 59.6 µM (inactive) | IC50 [16]: 4.07 µM (active) | IC50 [17]: 2.09 µM (active) | EC50 (HEK293 [18]): > 59.6 µM (inactive) | IC50 [19]: 13.7 µM (inactive)

COc1ccc(C)cc1NC(=O)CCS(=O)(=O)c1ccc2c(c1)NC(=O)CS2
EC50 [20]: > 100 µM (inactive)

CN1C(=O)c2cc(NC(=O)Nc3cccc(Cl)c3)ccc2OC[C@@H]2O[C@H](CC(=O)NCCc3ccncc3)CC[C@H]21
AC50 [21]: 16.1 µM (active)

CC(C)Oc1ccccc1OC1(C)CCN(Cc2ccc(OC(F)(F)F)cc2)C1 (stereo not given)
AC50 (Vero): 27.4 µM (active)

Cc1ncc(CO)c(/C=N/NC(=O)c2cc3c(s2)CCCC3)c1O
AC50 (INS1): 1.89 µM (active) | AC50 [7]: 119 µM (active) | IC50 (Nonstructural protein 1): 11.9 µM (active) | EC50 (cells [22]): 11.4 µM (active) | EC50 (cells [23]): > 350 µM (not active)
